Results: US20230141034A1, “ADAMANTANE-1-CARBONYL THIOUREA, AS P2X RECEPTOR ANTAGONIST” (COMSATS UNIVERSITY ISLAMABAD, priority 2021, published 2023)
Where two headings read alike, the source gives them in different places.

Tests used:
[1] = MTT cytotoxicity assay, human 1321N1 astrocytoma cell line; assay type: cell-based; conditions: human, 1321N1 astrocytoma cells, final concentration of 50 μM
Method: (§1) Cellular safety profiling of adamantane thioureas were done through MTT assay. All compounds were analyzed for toxicity at final concentration of 50 μM. […] Toxicity was determined against two cancer cell lines including human 1321N1 Astrocytoma cell line, HeLa cell line and a normal HEK-293 cell line.
(§2) c. Cell Viability Assay (MTT Assay)
(§3) After 24 h of incubation at 37° C. in CO2 incubator, culture media will be replaced with serum-free media along with test compounds and re-incubate. After 24 h, media will be removed and add 100 μL of MTT reagent (0.5-5 mg/mL) and will be incubated for a further 4 h, at 37° C. Absorbance will be measured at 570 and 630 nm to calculate cell viability.

[2] = MTT cytotoxicity assay, HEK-293 cell line; assay type: cell-based; conditions: human, HEK-293 cells, final concentration of 50 μM
Method: as §1, §2, §3

[3] = MTT cytotoxicity assay, HeLa cell line; assay type: cell-based; conditions: human, HeLa cells, final concentration of 50 μM
Method: as §1, §2, §3

h-P2X2 = biological target: T1, h-P2X2 (Homo sapiens, UniProt Q9UBL9); assay: Ca2+ flux assay h-P2X2; conditions: for inhibition at 50 µM: read-out: h-P2X2 % Inhibition; for IC50: read-out: h-P2X2 IC50 ± SEM, Ca2+ flux, n = 3
T1 sequence (Q9UBL9 1-471): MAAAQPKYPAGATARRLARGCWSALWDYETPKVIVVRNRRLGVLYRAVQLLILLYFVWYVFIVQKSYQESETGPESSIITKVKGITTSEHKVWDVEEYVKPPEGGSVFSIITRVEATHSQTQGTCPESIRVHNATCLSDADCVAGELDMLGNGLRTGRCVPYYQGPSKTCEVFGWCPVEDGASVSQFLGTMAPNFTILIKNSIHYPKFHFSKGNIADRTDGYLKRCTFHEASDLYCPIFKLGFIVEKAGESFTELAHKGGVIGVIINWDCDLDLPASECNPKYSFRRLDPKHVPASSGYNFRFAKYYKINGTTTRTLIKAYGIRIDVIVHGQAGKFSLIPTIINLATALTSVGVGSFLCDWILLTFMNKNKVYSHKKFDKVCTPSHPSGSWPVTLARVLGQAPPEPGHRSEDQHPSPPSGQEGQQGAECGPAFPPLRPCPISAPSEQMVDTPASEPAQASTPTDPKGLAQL
Method: (§4) Compounds were initially analyzed at a final concentration of about 50 μM and percentage of inhibition was calculated.
(§5) Calcium Mobilization Assay to Measure P2X Receptors Response Cell Culture: P2X receptors functions can be analyzed from ATP-induced increase in cytosolic Ca^2+ concentration. Two Ca^2+ chelating dyes, Fura-2 AM and Fluo-4 AM can be used to determine the intracellular Ca^2+ concentration through a fluorescent imaging micro-titer plate reader (BMG Labtech: FLUOstar Galaxy®). Non-transfected human 1321N1 astrocytoma cells, as well as P2X receptors transfected human 1321N1 astrocytoma cells will be cultured in T-75 cm^2 cell culture flask having appropriate cell culture growth media; Dulbecco's Modified Eagle's medium (DMEM) supplemented with 10% fetal bovine serum (FBS), 75 μg/mL of Hygromycin B or human P2X receptors transfected cell lines and 1% pen-strep (antibiotics). Cells will be incubated at 37° C. in 5% CO2 incubator until 80 to 90% cell confluency will be achieved. Cells will be maintained in an exponential growth phase throughout the experiment and closely monitored for contamination.
Measurement of Ca^2+ Flux
(§6) When 1321N1 cells will reach 80 to 90% of confluency, cells will be harvested from T-75 cm^2 flask by trypsinization. After washing the cells with phosphate buffer saline (PBS), cells will be seeded at a density of 20,000 cells/well in black, clear bottom, poly-D-lysine coated 96 well plate. After 16 to 24 h, cell culture media will be removed and add Hank's balanced salt solution (HBSS) containing 3 μM Ca^2+ chelating dyes Fura-2 AM or Fluo-4 AM. After 1 h of incubation at 23° C., the loading dye solution will be removed, and added seven to eight dilutions of test compounds in triplicate format. ATP (at a concentration value of EC80) or buffer will be added and measured the excitation and emission at 340/520 nm and 380/520 nm through FLUOStar Galaxy®. Assay volume for the experiment will be 200 μL. IC50 and EC50 values will be calculated by PRISM 5.0 (GrapgPad, San Diego, Calif., USA) through non-linear regression analysis.

h-P2X4 = biological target: T2, h-P2X4 (Homo sapiens, UniProt Q99571); assay: Ca2+ flux assay h-P2X4; conditions: for inhibition at 50 µM: read-out: h-P2X4 % Inhibition
T2 sequence (Q99571 1-388): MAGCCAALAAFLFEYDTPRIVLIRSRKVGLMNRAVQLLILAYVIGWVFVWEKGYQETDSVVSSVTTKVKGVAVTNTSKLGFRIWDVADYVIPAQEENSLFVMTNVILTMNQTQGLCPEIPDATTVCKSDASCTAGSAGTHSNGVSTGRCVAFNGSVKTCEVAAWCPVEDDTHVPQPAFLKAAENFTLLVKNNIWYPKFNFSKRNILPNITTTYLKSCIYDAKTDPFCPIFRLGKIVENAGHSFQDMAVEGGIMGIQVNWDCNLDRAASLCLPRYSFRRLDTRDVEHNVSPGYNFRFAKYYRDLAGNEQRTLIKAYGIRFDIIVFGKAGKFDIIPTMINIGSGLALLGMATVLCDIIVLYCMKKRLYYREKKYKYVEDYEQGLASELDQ
Method: as §4, §5
Measurement of Ca^2+ Flux
as §6

h-P2X5 = h-P2X5 (Homo sapiens, UniProt Q93086); assay: Ca2+ flux assay h-P2X5; conditions: for inhibition at 50 µM: read-out: h-P2X5 % Inhibition
Method: as §4, §5
Measurement of Ca^2+ Flux
as §6

h-P2X7 = biological target: T3, h-P2X7 (Homo sapiens, UniProt Q99572); assay: Ca2+ flux assay h-P2X7; conditions: for inhibition at 50 µM: read-out: h-P2X7 % Inhibition
T3 sequence (Q99572 1-595): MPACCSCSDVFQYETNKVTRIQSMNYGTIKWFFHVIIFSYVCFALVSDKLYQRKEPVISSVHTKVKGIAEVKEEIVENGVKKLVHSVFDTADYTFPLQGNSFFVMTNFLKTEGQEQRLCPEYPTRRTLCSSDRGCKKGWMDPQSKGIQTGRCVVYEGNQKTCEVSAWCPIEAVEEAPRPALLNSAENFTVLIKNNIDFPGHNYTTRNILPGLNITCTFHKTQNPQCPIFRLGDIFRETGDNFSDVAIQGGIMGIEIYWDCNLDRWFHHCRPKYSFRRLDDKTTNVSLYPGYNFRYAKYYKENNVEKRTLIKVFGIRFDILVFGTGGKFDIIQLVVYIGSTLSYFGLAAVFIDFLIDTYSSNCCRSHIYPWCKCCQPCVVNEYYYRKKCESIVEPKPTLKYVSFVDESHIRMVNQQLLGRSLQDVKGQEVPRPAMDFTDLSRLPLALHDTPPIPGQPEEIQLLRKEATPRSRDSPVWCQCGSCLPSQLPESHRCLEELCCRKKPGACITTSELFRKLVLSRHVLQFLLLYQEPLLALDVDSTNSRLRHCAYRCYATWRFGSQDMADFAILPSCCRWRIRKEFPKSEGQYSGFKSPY
Method: as §4, §5
Measurement of Ca^2+ Flux
as §6

[4] = read-out: h-P2X4 IC50 ± SEM, Ca2+ flux, n = 3
[5] = read-out: h-P2X7 IC50 ± SEM, Ca2+ flux, n = 3

h-P2X5, sequence (Q93086 whole entry): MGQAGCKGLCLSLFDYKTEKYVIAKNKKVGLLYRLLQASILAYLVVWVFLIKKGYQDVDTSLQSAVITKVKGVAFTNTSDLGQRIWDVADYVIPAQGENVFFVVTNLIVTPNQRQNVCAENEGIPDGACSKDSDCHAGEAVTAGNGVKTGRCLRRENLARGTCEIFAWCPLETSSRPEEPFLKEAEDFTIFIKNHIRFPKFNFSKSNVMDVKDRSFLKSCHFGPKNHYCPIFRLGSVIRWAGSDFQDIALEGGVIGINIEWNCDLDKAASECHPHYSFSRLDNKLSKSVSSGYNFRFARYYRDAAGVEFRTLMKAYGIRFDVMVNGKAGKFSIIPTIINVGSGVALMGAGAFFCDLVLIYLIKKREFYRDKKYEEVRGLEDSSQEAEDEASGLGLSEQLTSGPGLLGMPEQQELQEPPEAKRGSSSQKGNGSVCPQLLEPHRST

inhibition at 50 µM (h-P2X2) [%] | IC50 (h-P2X4; [4]) [µM] | inhibition at 50 µM (h-P2X5) [%] | IC50 (h-P2X7; [5]) [µM] | inhibition at 50 µM (h-P2X4) [%] | inhibition at 50 µM (h-P2X7) [%] | IC50 (h-P2X2) [µM] | IC50 (h-P2X5) [µM] | IC50 (h-P2X4) [µM] | IC50 (h-P2X7) [µM] | Compound | cytotoxicity at 24 h, 50 µM [1] [%] | cytotoxicity at 24 h, 50 µM [2] [%] | cytotoxicity at 24 h, 50 µM [3] [%] | IC50 (h-P2X5; read-out: h-P2X5 IC50 ± SEM, Ca2+ flux, n = 3) [µM]
32.6 | 1.08 ± 0.02 | 40.6 | 1.47 ± 0.09 | – | – | – | – | – | – | O=C(NC(=S)Nc1ccccc1O)C12CC3CC(CC(C3)C1)C2 [Ia, N-((2-hydroxyphenyl)carbamothioyl)adamantane-1-carboxamide] | 10.3 | 26.6 | 13.1 | –
32.6 | – | 43.6 | – | 36.7 | 19.1 | – | – | – | – | O=C(NC(=S)Nc1cccc(O)c1)C12CC3CC(CC(C3)C1)C2 [Ib, N-((3-hydroxyphenyl)carbamothioyl)adamantane-1-carboxamide] | 5.67 | 6.95 | 11 | –
37.9 | – | 33.2 | 1.4 ± 0.18 | 32.4 | – | – | – | – | – | O=C(NC(=S)Nc1ccc(O)cc1)C12CC3CC(CC(C3)C1)C2 [Ic, N-((4-hydroxyphenyl)carbamothioyl)adamantane-1-carboxamide] | 19 | 3.02 | 8.66 | –
– | 1.28 ± 0.11 | – | – | – | – | 1.06 ± 0.05 | 3.4 ± 0.4 | – | – | O=C(NC(=S)Nc1cc(Cl)c(O)c(Cl)c1)C12CC3CC(CC(C3)C1)C2 [Id, N-((3,5-dichloro-4-hydroxyphenyl)carbamothioyl)adamantane-1-carboxamide] | 6.18 | 1.06 | 5.4 | –
30.5 | – | 20.4 | – | – | – | – | – | 4.53 ± 0.39 | 4.02 ± 0.64 | O=C(NC(=S)Nc1cc(Br)c(O)c(C(F)(F)F)c1)C12CC3CC(CC(C3)C1)C2 [Ie, N-((3-bromo-4-hydroxy-5-(trifluoromethyl)phenyl)carbamothioyl)adamantane-1-carboxamide] | 5.37 | 6.85 | 11.9 | –
18.1 | – | 42.5 | – | – | – | – | – | 4.19 ± 0.23 | 0.829 ± 0.12 | NS(=O)(=O)c1cccc(NC(=S)NC(=O)C23CC4CC(CC(C4)C2)C3)c1 [Ig, N-((3-sulfamoylphenyl)carbamothioyl)adamantane-1-carboxamide] | 12.9 | 3.77 | 12.5 | –
– | 1.29 ± 0.09 | 32.1 | 2.53 ± 0.72 | – | – | 4.58 ± 0.21 | – | – | – | O=C(NC(=S)Nc1cc([N+](=O)[O-])ccc1Cl)C12CC3CC(CC(C3)C1)C2 [Ih, N-((2-chloro-5-nitrophenyl)carbamothioyl)adamantane-1-carboxamide] | 20.5 | 24.6 | 8.66 | –
– | – | 44 | – | 38 | 15.1 | 2.31 ± 0.31 | – | – | – | COc1cccc(NC(=S)NC(=O)C23CC4CC(CC(C4)C2)C3)c1 [Ii, N-((3-methoxyphenyl)carbamothioyl)adamantane-1-carboxamide] | 6.53 | 20.7 | 18.1 | –
– | – | 44.5 | – | 44.9 | 29.4 | 5.24 ± 0.32 | – | – | – | COc1ccc(NC(=S)NC(=O)C23CC4CC(CC(C4)C2)C3)cc1 [Ij, N-((4-methoxyphenyl)carbamothioyl)adamantane-1-carboxamide] | 4.56 | 10.6 | 8.01 | –
– | 3.46 ± 0.4 | – | 4.9 ± 1.04 | – | – | 0.732 ± 0.01 | 1.48 ± 0.23 | – | – | COc1ccc(NC(=S)NC(=O)C23CC4CC(CC(C4)C2)C3)cc1OC [Ik, N-((3,4-dimethoxyphenyl)carbamothioyl)adamantane-1-carboxamide] | 19.4 | 7.2 | 14.3 | –
36 | – | 47.7 | 8.8 ± 1.12 | 46.8 | – | – | – | – | – | O=C(NC(=S)Nc1ccc(Br)cc1)C12CC3CC(CC(C3)C1)C2 [Il, N-((4-bromophenyl)carbamothioyl)adamantane-1-carboxamide] | 15.4 | 18.7 | 7.19 | –
– | 1.56 ± 0.21 | – | 3.71 ± 0.78 | – | – | 4.85 ± 0.32 | 6.04 ± 1.2 | – | – | Cc1ccc(NC(=S)NC(=O)C23CC4CC(CC(C4)C2)C3)c(Br)c1 [Im, N-((2-bromo-4-methylphenyl)carbamothioyl)adamantane-1-carboxamide] | 7.29 | 18.9 | 15.4 | –
22.7 | – | 27.1 | – | 34.9 | 18.8 | – | – | – | – | Cc1cc(Br)ccc1NC(=S)NC(=O)C12CC3CC(CC(C3)C1)C2 [In, N-((4-bromo-2-methylphenyl)carbamothioyl)adamantane-1-carboxamide] | 14.3 | 14 | 4.1 | –
41.1 | – | 16.2 | – | – | 11.2 | – | – | 5.73 ± 0.42 | – | O=C(NC(=S)Nc1cc(Br)ccc1Br)C12CC3CC(CC(C3)C1)C2 [Iq, N-((2,5-dibromophenyl)carbamothioyl)adamantane-1-carboxamide] | 21.2 | 14.8 | 20.7 | –
2.15 | – | 11.2 | – | 0 | 5.01 | – | – | – | – | CN(C)CCCNC(=S)NC(=O)C12CC3CC(CC(C3)C1)C2 [Ir, N-((3-(dimethylamino)propyl)carbamothioyl)adamantane-1-carboxamide] | 10.1 | 5.16 | 8.14 | –

Compound | inhibition at 50 µM (h-P2X2) [%] | IC50 (h-P2X4; [4]) [µM] | inhibition at 50 µM (h-P2X5) [%] | IC50 (h-P2X7; [5]) [µM] | inhibition at 50 µM (h-P2X4) [%] | inhibition at 50 µM (h-P2X7) [%] | IC50 (h-P2X2) [µM] | IC50 (h-P2X5) [µM] | IC50 (h-P2X4) [µM] | IC50 (h-P2X7) [µM] | cytotoxicity at 24 h, 50 µM [1] [%] | cytotoxicity at 24 h, 50 µM [2] [%] | cytotoxicity at 24 h, 50 µM [3] [%] | IC50 (h-P2X5; read-out: h-P2X5 IC50 ± SEM, Ca2+ flux, n = 3) [µM]
Cc1ccc(C(=O)Nc2ccc(S(=O)(=O)O)c3cc(S(=O)(=O)O)cc(S(=O)(=O)O)c23)cc1NC(=O)c1cccc(NC(=O)Nc2cccc(C(=O)Nc3cc(C(=O)Nc4ccc(S(=O)(=O)O)c5cc(S(=O)(=O)O)cc(S(=O)(=O)O)c45)ccc3C)c2)c1 [Suramin, reference compound] | – | 5.64 ± 0.04 | – | – | – | – | 13.45 ± 0.11 | – | – | – | 18.6 | 48 | 21.7 | 16.1 ± 0.5
